Source: patent US12017975B2, “Myc-Max inhibitor compound therapeutics for cancer treatment, methods and uses associated therewith” (THE UNIVERSITY OF BRITISH COLUMBIA, priority 2018, dated 2024)
Read-outs that look alike come from different tables or passages of the source.

Columns and labels:
[1] = tested on: Myc-Max transcriptional activity; experiment: Cignal c-Myc luciferase reporter assay in LNCaP cells; format: cell-based; details: for inhibition at 25 µM / IC50 / inhibition at 5 µM / inhibition at 10 µM: Homo sapiens, LNCaP; for inhibition at 25 µM: read-out: % Inhibition 25 μM
Description: Cell transfection was performed using TransIT-2020™ transfection reagents according to the manufacturer's instructions (Mirus™). LNCaP cells were plated at 10000 cells per well and treated for 1 day with the indicated concentration of compound. Myc reporter activity was measured using the Cignal Myc Reporter Assay Kit™ from Qiagen™ (#336841) according to the manufacturer's instructions. For the UBE2C reporter assay, 22rv1 cells were plated at 10000 cells per well in 96-well plates in RPMI media supplemented with 5% charcoal-stripped serum (CSS) and treated for 1 day with 1 μM, 10 μM and 25 μM of compound.
Compounds were subjected to experimental evaluation using the commercially available transcriptional assay Cignal c-Myc luciferase reporter assay in LNCaP cells. […] A transiently transfected Myc-driven luciferase reporter allowed the monitoring of Myc-regulated signal in LNCaP upon treatment with the in silico identified compounds.

[2] = tested on: LNCaP cells; experiment: PARP cleavage (apoptosis) by Western blot in LNCaP cells; format: cell-based; details: TABLE 2, LNCaP cells
Description: After 48 hours of treatment with Myc compounds, LNCaP cells were lysed, and protein sample preparation followed by Western blotting were performed. Blots were incubated with primary antibodies against c-Myc, PARP (Sigma™ 084M4766V), PARP cleaved-Asp214 (Sigma™ SAB4500487) and β-Actin (Sigma™ A2066) overnight at 4° C., followed by appropriate peroxidase-conjugated secondary antibodies. β-actin served as an internal control. Visualization of the immunocomplexes was done by an enhanced chemiluminescence detection system (Millipore™) followed by exposure to X-ray films.
Apoptosis. Myc inhibition induces cell death by cell cycle arrest and apoptosis. Cleavage of PARP-1 by caspases is considered a hallmark of apoptosis and so we measured the ability of compounds to induce PARP cleavage after treatment.

[3] = molecular target: T1, Myc-Max complex (Homo sapiens, UniProt P01106+P61244); experiment: Biolayer interferometry of Myc-Max binding to biotinylated E-box DNA; details: TABLE 2
T1 construct: GST tagged Myc (residues 368-454); Histidine tagged Max (residues 23-102); made in house; host or cells: E. coli BL21-DE3
Description: Histidine tagged Max (residues 23-102) and GST tagged Myc (residues 368-454) were overexpressed in E. coli BL21-DE3 cells. Cells were co-lyzed in lysis buffer (20 mM Tris pH 8, 500 mM NaCl, 5% glycerol, 10 mM imidazole, 8 mM BME, 2.1 mM PMSF). After sonication and centrifugation, the complex was first purified by using a Ni-NTA affinity resin. After overnight dialysis to remove the imidazole, the protein sample was applied to a size exclusion chromatography equilibrated with (20 mM Tris pH 8, 150 mM NaCl, 5% glycerol, 0.2 mM TCEP). Fractions containing equal amount of Myc and Max on SDS PAGE were collected and used for the binding assay. The presence of both proteins was validated by Western blot using a specific antibody of each protein (Max (h2) Sc-8011 and c-Myc (9E10) Sc-40, Santa Cruz Biotechnology™)
The direct interaction between biotinylated E-box oligo ([…]) immobilized on a streptavidin biosensor and a purified Myc-Max complex (0.05 mg/ml) was quantified by BLI using OctetRED (ForteBio™). The DNA was first bound to the super-streptavidin sensors over 1000 sec at 25° C. The sensors were next moved into wells containing the reaction buffer (20 mM Tris pH 8, 150 mM NaCl, 5% glycerol, 0.2 mM TCEP, 5% dimethylsulfoxide) for measuring the baseline and next into the Myc-Max complex alone or in presence of the tested inhibitors to study the association of the complex to the DNA.
Direct Binding and disruption of protein-DNA interaction. To study the direct effect of our hit compounds VPC-70063 and VPC-70067 on the interaction between Myc-Max heterodimer and the DNA, we used Bio-Layer Interferometry (BLI, ForteBio™). This technique is a label-free technology allowing the measurement of direct interactions between two partners, one immobilized on a sensor and the other one present in a solution. We applied this technology to study the disruption of the interaction between a biotinylated E-box oligo immobilized on a streptavidin biosensor and a purified Myc-Max complex in presence of our compounds. Therefore, histidine-tagged Max (residues 23-102) and GST tagged Myc (residues 368-454) were overexpressed and co-purified. The fraction containing equal amount of Myc and Max was collected and used for the binding assay (FIG. 3B). The presence of both proteins was validated by Western blot using a specific antibody of each protein. […] Additionally, we tested the ability of our best compound VPC-70063 to disrupt the interaction of MYC/MAX with DNA in a dose dependent manner.

[4] = TABLE 2, assay not named, values match Myc-Max transcriptional activity, read-out: IC50

T1 sequence (P01106 368-454): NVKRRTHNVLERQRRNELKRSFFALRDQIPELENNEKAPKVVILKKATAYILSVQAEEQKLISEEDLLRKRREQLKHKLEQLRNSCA
T1 sequence (P61244 23-102): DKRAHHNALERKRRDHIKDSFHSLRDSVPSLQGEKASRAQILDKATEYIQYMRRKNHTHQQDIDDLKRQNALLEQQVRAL

SMILES	inhibition at 25 µM ([1]; 25 μM, TABLE 3) [%]	inhibition at 5 µM ([1]; 5 μM, TABLE 3) [%]	inhibition at 10 µM ([1]; TABLE 3) [%]	further results
S=C(NCc1ccncc1)Nc1cc(Cl)cc(Cl)c1 [VPC-70084]	80			IC50 [1, 4]: 20 µM; PARP effect [2]: weak
NS(=O)(=O)c1ccc(NC(=O)[C@H]2CC=CC[C@H]2C(=O)O)cc1 [VPC-70394]				inhibition at 25 µM ([1]; 25 μM, TABLE 5): 54%
O=C(N[C@H](CO)Cc1ccccc1)c1cc(-n2cnnc2)ccc1Cl [VPC-70395]				inhibition at 25 µM ([1]; 25 μM, TABLE 5): 56%; IC50 [1, 4]: > 25 µM
CCCc1cc(=O)oc2cc(C)cc(OCC(=O)N[C@@H](C)C(=O)O)c12 [VPC-70404]				inhibition at 25 µM ([1]; 25 μM, TABLE 5): 53%
CCCc1cc(=O)oc2cc(C)cc(OCC(=O)N[C@H](C(=O)O)C(C)C)c12 [VPC-70405]				inhibition at 25 µM ([1]; 25 μM, TABLE 5): 54%
CC(C)C[C@H](NC(=O)C(Cc1ccccc1)NC(=O)CNC(=O)[C@H](C)NC(=O)[C@@H](N)Cc1ccc(O)cc1)C(=O)OCc1ccccc1 (stereo partly drawn) [VPC-70413]				IC50 [1]: 15 µM; inhibition at 25 µM [1]: 114%; PARP effect [2]: weak; BLI binding [3]: weak
FC(F)(F)c1cc(NC(=S)NC[C@H]2CCCO2)cc(C(F)(F)F)c1 [VPC-70437]	87	24	105	
S=C(NCc1cccs1)Nc1ccc(Cl)c(Cl)c1 [VPC-70458]	86	42	104	
Fc1ccccc1CNC(=S)Nc1cccc(C(F)(F)F)c1 [VPC-70465]	92	51		% Inhibition 10 μM ([1]; TABLE 3): 95%; IC50 [1, 4]: 10 µM
O=C(NCc1ccccc1Cl)Nc1ccc(Cl)c(Cl)c1 [VPC-70466]	86	1	48	
Cc1c(Cl)cccc1NC(=S)NCc1ccc(F)cc1 [VPC-70468]	74	9	30	
CC[C@@H](NC(=S)Nc1cccc(C)c1)c1ccccc1 [VPC-70473]	77			
S=C(NCc1ccccc1)Nc1cccc(Cl)c1 [VPC-70477]	99	3	30	
Cc1cc(NC(=S)NCC(C)C)cc(C(F)(F)F)c1 [VPC-70478]	91	26	65	
Fc1ccccc1CNC(=S)Nc1cccc(C(F)(F)F)c1 [VPC-70483]				% Inhibition 5 μM ([1]; 5 μM, TABLE 3): 31%; % Inhibition 10 μM ([1]; TABLE 3): 38%; % Inhibition 25 μM ([1]; 25 μM, TABLE 3): 79%
CS(=O)(O)=Nc1cccc(NC(=S)NCc2cccc(C(F)(F)F)c2)c1 [VPC-70487]	79	34	42	
C=C(C)COc1cccc(NC(=S)NCc2cccc(C(F)(F)F)c2)c1 [VPC-70489]	99	38	86	
FC(F)(F)c1cc(Br)cc(NC(=S)NCc2cccs2)c1 [VPC-70495]	100	107	80	IC50 [1, 4]: 5 µM
S=C(NCc1cccnc1)Nc1cc(Cl)cc(Cl)c1 [VPC-70496]	96	22	95	
